A short description of data set [1]: Aqueous solubility, shake-flask method. Type of data set: physicochemical. As to conditions: pH 7.0 buffer, pH 7, aqueous buffer, thermodynamic from solid, shaking flask, buffered media at pH 7.0, mean of three. The protocol: The aqueous solubility of compounds was measured in a Helios Alfa Spectrophotometer. Calibration lines at the maximum wavelength of absorbance were determined for each compound. Then, following the shake-flask method, a suspension of 5 mg of each compound in 500 µL in pH 7.0 buffer was stirred for 72 h at room temperature. The mixture was then filtrated over a […] filter to remove the insoluble fraction. The concentration of the compound in the resulting saturated solution was determined via UV absorbance measurement and interpolation in the calibration line. The aqueous solubility values are given as the average of three independent measurements.

Data set [2] relates to HT-29 cells. Kind of data set: Cell growth inhibition assay (MTT). The conditions noted are these: Homo sapiens, HT-29, 72 h after drug exposure. It is filed as cell-based, human. Here is the method: (§1) The cell lines were obtained from ATTC (Manassas, VA, USA). HeLa (human cervix epithelioid carcinoma), MCF7 (human breast adenocarcinoma), HepG2 (human hepatocellular carcinoma), U87 MG (human glioblastoma), T98G (human glioblastoma), GL261 (murine glioma), LNCaP (human prostate cancer), PC-3 (human prostate cancer), and HEK-293 (human embryonic kidney) were grown in Dulbecco’s modified Eagle’s medium (DMEM, Gibco, Waltham, MA, USA), supplemented with 10% (v/v) heat-inactivated fetal bovine serum (HIFBS, Sigma-Aldrich, St. Louis, MO, USA)), 2 mM L-glutamine, 100 μg/mL streptomycin, and 100 units/mL penicillin (Gibco, Waltham, MA, USA) at 37 °C in saturated humidity atmosphere containing 95% air and 5% CO2. Cell line HT-29 (human colon carcinoma) was grown in Roswell Park Memorial Institute (RPMI) 1640 medium (Gibco, Whaltman, MA, USA) supplemented with 10% HIFBS, 100 μg/mL streptomycin, and 100 units/mL penicillin (Gibco, Whaltman, MA, USA) at 37 °C in humidified 95% air and 5% CO2 atmosphere. MycoAlert kit (Lonza, Norwest, Australia) was used to routinely check the presence of mycoplasma, and only mycoplasma-free cells were employed in the experiments.
(§2) Cells were plated in 96-well plates (100 µL/well) at the following concentrations: 30,000 cells/mL (HepG2, U87 MG, T98G, C6, LNCaP, PC3, and HT-29 cells) or 15,000 cells/mL (HeLa and MCF-7 cells). Previous experiments were performed to choose the optimal cell concentration (70–80% confluence) and avoid the formation of cell aggregates. Cells were incubated in complete DMEM or RPMI 1640 medium (see above) at 37 °C and 5% CO2 atmosphere for 24 h to allow for cell attachment to the plate. Then, every compound was added (10 µL/well) to a final concentration of 10 µM. Non-treated cells were used as negative controls. The antiproliferative activity of compounds was measured 72 h after the treatments using the MTT reagent (3-[4,5-dimethylthiazol-2-yl]-2,5-diphenyltetrazolium bromide), (MTT Thiazolyl Blue Tetrazolium Bromide, Sigma-Aldrich, St. Louis, MO, USA) dissolved in PBS at 5 mg/mL. Compounds showing antiproliferative effects at 10 µM were selected to determine their IC50 value. For that purpose, compounds were used at different concentrations ranging from 10^−10 to 10^−2 M. Measurements were performed in triplicate, and each experiment was repeated three times. The IC50 value was determined for every compound using Origin software (OriginLab, Washington, USA). To study the sensitivity to MDR efflux pumps of compounds, the IC50 values were determined by following the same procedure but in the presence of verapamil (final concentration of 10 µM).

The test system of data set [3] is HeLa cells. Kind of data set: Cell growth inhibition assay (MTT). It is filed as cell-based, human. As to conditions: Homo sapiens, HeLa, 72 h after drug exposure. The protocol: as §1, §2
In data set [4] the test system is HepG2 cells. The data set can be described thus: Cell growth inhibition assay (MTT). As to conditions: Homo sapiens, HepG2, 72 h after drug exposure. It is filed as cell-based, human. The protocol: as §1, §2
Data set [5] has as its system LNCaP cells. The data set can be described thus: Cell growth inhibition assay (MTT). The conditions noted are these: Homo sapiens, LNCaP, 72 h after drug exposure. Type of data set: cell-based, human. The protocol: as §1, §2
Data set [6] has as its system MCF7 cells. Kind of data set: Cell growth inhibition assay (MTT). Type of data set: cell-based, human. The conditions noted are these: Homo sapiens, MCF7; MTT, 72 h after drug exposure. Here is the method:
as §1, §2

Data set [7] concerns PC-3 cells. The data set can be described thus: Cell growth inhibition assay (MTT). It is filed as cell-based, human. The conditions noted are these: Homo sapiens, PC-3, 72 h after drug exposure. The protocol:
as §1, §2

In data set [8] the test system is T98G cells. Kind of data set: Cell growth inhibition assay (MTT). Type of data set: cell-based, human. The conditions noted are these: Homo sapiens, T98G, 72 h after drug exposure. Here is the method:
as §1, §2

Data set [9] has as its system U87MG cells. Kind of data set: Cell growth inhibition assay (MTT). It is filed as cell-based, human. The conditions noted are these: Homo sapiens, U-87 MG; MTT, 72 h after drug exposure. Here is the method:
as §1, §2

For data set [10], the system named is GL261 cells. The data set can be described thus: Cell growth inhibition assay (MTT). Type of data set: cell-based, murine. The conditions noted are these: Mus musculus, GL261, 72 h after drug exposure. Here is the method:
as §1, §2

Data set [11] has as its system HEK-293 cells. The data set can be described thus: Cell growth inhibition assay (MTT), non-tumorigenic cells. It is filed as cell-based, human. As to conditions: Homo sapiens, HEK293, 72 h after drug exposure, non-tumorigenic cell line. The protocol:
as §1, §2

The test system of data set [12] is HT-29 cells. Kind of data set: Cell growth inhibition (MTT) in the presence of 10 µM verapamil (sensitivity to MDR efflux pumps). It is filed as cell-based, human. As to conditions: 10 µM verapamil (P-gp/MDR1 inhibitor). The protocol: as §2
The test system of data set [13] is bovine brain tubulin. The data set can be described thus: Tubulin polymerization inhibition (turbidimetry). It is filed as biochemical. The conditions noted are these: for Tubulin polymerization inhibition (in words): 10 µM; for % TPI: compounds tested at 10 µM, with respect to the negative control; for IC50: concentration inhibiting 50% of microtubular protein polymerization in vitro, read-out: TPI IC50. Here is the method:
Microtubular protein was isolated from calf brain following the modified Shelanski method, based on temperature-dependent assembly/disassembly of tubulin [45]. The protein was stored at −80 °C, and its concentration was determined using the Bradford method before each use. Tubulin polymerization, which occurs when heating a buffered tubulin sample from 4 °C to 37 °C, is accompanied by an increase in the absorbance (at 450 nm) of the sample that was monitored by a Helios α spectrophotometer. […] Then, the temperature was adjusted to 4 °C, and the temperature being shifted to 37 °C allowed for the assembly process of tubulin. The turbidity caused by tubulin polymerization was measured by the increased absorbance at 450 nm. The increase in absorbance obtained for the control sample (without the ligand), which we considered to be 100% tubulin polymerization (0% inhibition), compared with the increase in absorbance determined for the sample containing ligands yielded the degree of tubulin polymerization inhibition (TPI), which is expressed as a percentage value. For the compounds displaying TPI values over 50% at 10 µM, the IC50 value for TPI was calculated. Measurements were performed in triplicate in two independent experiments using microtubular protein from different preparations.

≈ marks a conversion by molar mass, not a printed value.

Turning to `CCNC(=O)N(Cc1[nH]cnc1C)c1nc2ccc(OC)cc2s1` [Compound 10, 3-ethyl-1-(6-methoxybenzo[d]thiazol-2-yl)-1-((4-methyl-1H-imidazol-5-yl)methyl)-urea], the concentration in solution in data set [1] (solubility at 72 h) came to 178 µg/mL (≈ 515 µM). The IC50 in data set [2], in data set [3], in data set [4], in data set [5], in data set [6] and in data set [7] was more than 10 µM in each case. Further, the IC50 in [8], in [9], in [10], in data set [11], in data set [12] and in data set [13] was more than 10 µM each time. For the same compound, the “Tubulin polymerization inhibition (in words)” value in data set [13] is “not able to inhibit tubulin polymerization”. Further, the “% TPI” value in [13] amounted to 0%.

On to `CCNC(=O)N(Cc1ccccc1)c1nc2ccc(OC)cc2s1` [Compound 11, 1-benzyl-3-ethyl-1-(6-methoxybenzo[d]thiazol-2-yl)urea], for which, in data set [1], the solubility (as a rule, how much of the substance goes into solution per volume) at 72 h turned out to be 16 µg/mL (≈ 46.9 µM). For the same compound, the IC50 (commonly the point on the concentration scale where inhibition reaches its midpoint) in data set [2] is more than 10 µM; in [3], 2.71 µM; in data set [4], 2.45 µM; in [5], 2.37 µM; in [6] it was 2.04 µM; in data set [7], more than 10 µM. Besides, the IC50 in [8] was more than 10 µM; in data set [9], 2.91 µM; in [10], 2.93 µM; in [11] it was more than 10 µM; in data set [12], more than 10 µM; in [13] it was more than 10 µM. The “% TPI” value in data set [13] came out at 6%.

With `CCNC(=O)N(Cc1ccc2ccccc2c1)c1nc2ccc(OC)cc2s1` [Compound 12, 3-ethyl-1-(6-methoxybenzo[d]thiazol-2-yl)-1-(naphthalen-2-ylmethyl)urea], the solubility at 72 h in data set [1] is less than 9 µg/mL. Besides, the IC50 in [2], in data set [3], in data set [4], in data set [5], in data set [6] and in data set [7] was more than 10 µM each time. The IC50 in data set [8], in data set [9], in data set [10], in [11], in [12] and in data set [13] was more than 10 µM throughout. The “Tubulin polymerization inhibition (in words)” value in data set [13] is recorded as “not able to inhibit tubulin polymerization”. In [13], the “% TPI” value is given as 0%.

For the compound `COc1ccc2nc(N(C=O)Cc3[nH]cnc3C)sc2c1` [Compound 16, N-(6-methoxybenzo[d]thiazol-2-yl)-N-((4-methyl-1H-imidazol-5-yl)methyl)formamide], in data set [1], the solubility at 72 h is 165 µg/mL (≈ 546 µM). The IC50 in data set [2], in [3], in [4], in data set [5], in data set [6] and in [7] was more than 10 µM throughout. The IC50 in data set [8], in data set [9], in data set [10], in data set [11], in [12] and in data set [13] was more than 10 µM throughout. For the same compound, the “Tubulin polymerization inhibition (in words)” value in data set [13] is “not able to inhibit tubulin polymerization”. For the same compound, the “% TPI” value in data set [13] was 0%.

`COc1ccc2nc(N(C=O)Cc3ccccc3)sc2c1` [Compound 17, N-benzyl-N-(6-methoxybenzo[d]thiazol-2-yl)formamide] yielded a solubility at 72 h in data set [1] of 12 µg/mL (≈ 40.2 µM). In addition, the 50% inhibitory concentration (IC50) in data set [2] is more than 10 µM; in data set [3] it was 3.4 µM; in data set [4] it was 5.55 µM; in [5], 4.01 µM; in data set [6], 5.02 µM; in [7], more than 10 µM. Moreover, the IC50 in data set [8] is more than 10 µM; in data set [9], 5.27 µM; in [10] it was 6.41 µM; in data set [11], more than 10 µM; in data set [12] it was more than 10 µM; in data set [13], more than 10 µM. Also, the “% TPI” value in data set [13] came to 4%.

In data set [1], `COc1ccc2nc(N(C=O)Cc3ccc4ccccc4c3)sc2c1` [Compound 18, N-(6-methoxybenzo[d]thiazol-2-yl)-N-(naphthalen-2-ylmethyl)formamide] registered a solubility at 72 h of less than 9 µg/mL. Further, the IC50 in [2], in [3], in data set [4], in [5], in data set [6] and in [7] was more than 10 µM in each case. Also, the IC50 in [8], in [9], in data set [10], in data set [11], in [12] and in data set [13] was more than 10 µM each time. In addition, the “Tubulin polymerization inhibition (in words)” value in [13] was “not able to inhibit tubulin polymerization”. The “% TPI” value in [13] was 0%.

In the case of `COc1ccc2nc(N(Cc3ccccn3)C(C)=O)sc2c1` [Compound 19, N-(6-methoxybenzo[d]thiazol-2-yl)-N-(pyridin-2-ylmethyl)acetamide], in [1], the solubility at 72 h was 87 µg/mL (≈ 278 µM). For the same compound, the IC50 in [2] worked out at 2.54 µM; in data set [3] it was 1.55 µM; in data set [4], 1.88 µM; in [5], 2.07 µM; in data set [6] it was 2.03 µM; in data set [7], 3.01 µM. Also, the IC50 in data set [8] was 2.44 µM; in data set [9] it was 1.41 µM; in data set [10], 1.38 µM; in data set [11], more than 10 µM; in data set [12], 2.93 µM; in data set [13] it was more than 10 µM. Further, the “% TPI” value in data set [13] is 43%.

(Values after article PMC10301603, “Potent and Selective Benzothiazole-Based Antimitotics with Improved Water Solubility: Design, Synthesis, and Evaluation as Novel Anticancer Agents” (Pharmaceutics, 2023).)
